Data set [1] relates to Chinese Hamster Ovary (CHO) fibroblasts. Put plainly: Radioprotection survival curves of cultured CHO cells (FIG. 7, Table 5). The note with it: 30 μM, ratio of doses reducing survival to 10% of control. It counts as cell-based. The source says: where S is the survival fraction at dose D Gy, and α and β are constants.
The fitted values of α and β were used to calculate the radiation doses (D0.1) corresponding to a survival fraction of 0.1. The ratio of the D0.1 values with and without protector, then provided the Dose Modification Factor (DMF) for each compound:
DMF=D0.1(with protector)/D0.1(without)

Another data set concerns mouse lung. The data set can be described thus: Mouse lung model, bilateral lung irradiation. It counts as in vivo. The note with it: maximum breathing rate up to 24 weeks, FIG. 5. The text has this: Irradiation of mouse lung, at appropriate doses, results in fatal loss of lung function. The onset of damage is signalled by an increase in breathing rate. The dose response and kinetics of loss of lung function following irradiation of both lungs varies between different mouse strains.
The procedures for irradiation and measurement of breathing rate were essentially as described by Travis et al^3. Groups of 5-6 male DBA/2J mice were anaesthetised and irradiated with 250 kV X-rays (single dose) using a jig that shielded all the body except for both lungs. A thin midline lead strip was used to shield spinal cord between the lungs.
At weekly intervals, from 4-6 weeks post-irradiation, the breathing rate was measured for each mouse. The mouse was held in a small chamber equipped with a microphone and the output analysed on a PC. The mean breathing rate was determined for each of 3 periods of 2 seconds and the average of these readings was recorded as the breathing rate. The recorded breathing rates for each group of mice were averaged and the standard error calculated.
All mice were monitored daily for signs of respiratory distress (hunched appearance, raised hair), with particular attention being paid to those mice showing elevated breathing rate.
The radioprotector (2 mg/25 g mouse) was administered 30 minutes prior to the single irradiation dose.

For a further data set, the system named is pig skin. The data set can be described thus: Pig skin studies, topical radioprotector cream. It counts as in vivo. The note with it: cream 0.15 g/field. The source says:
The pig skin model is described by J. W. Hopewell^4. The structural similarities between human and pig skin underlie the relevance of the model.
Although some pig skin studies involve external beam irradiation, a particularly convenient radiation source is discs containing β-emitting isotopes, typically ^90Sr. The sources can be held to the skin, or for higher doses, taped to the animal, for appropriate periods of time to deliver the required dose. The discs are typically about 2 cm in diameter so that an array of different doses can be arranged on the flanks of a single animal.
The “acute” reactions (3-9 weeks after irradiation) result from radiation damage to the basal cells of the epidermis, and are manifest as erythema, and dry and moist desquamation. The “late” reactions (10-16 weeks) results from radiation effects to the dermal vascular connective tissue, characterized by a dusky mauve erythema and necrosis. The scoring system is well described.
The radioprotectors were formulated in a propylene glycol cream containing 10% DMSO. The extent and kinetics of penetration were followed by fluorescence microscopy of frozen skin sections, to enable optimization of delivery.
Radiation dose response curves were constructed for radiation only fields. The results of fields with radioprotector creams are shown in Table 3 below, with the respective cream (vehicle) only controls. The decrease in extent of skin reaction for the test fields is evident.

The test system of data set [2] is V79 cells. Put plainly: Radioprotection, clonogenic survival of irradiated V79 cells. It is filed as cell-based. The note with it: for Protector plus irradiation (12 Gy), survival fraction relative to untreated control cells / Protection Factor: 12 Gy; for Protection Factor: ratio of survival fractions with and without protector; for DMF: survival curves FIG. 3. Here is the method: (§1) Monolayers of V79 cells were maintained in 25 cm^2 Falcon plastic flasks in alpha-MEM medium with 10% foetal calf serum (FCS). Log phase cultures were treated by adding the required amount of Hoechst 33258, Hoechst 33342 or para dimethylamino Hoechst (25-500 nmoles) dissolved in 50 μL 10 μM acetic acid in 50% methanol. The flasks were inverted immediately prior to adding the compound to ensure complete mixing of the compound with the medium, before contact with the monolayer.
(§2) After 2 hours incubation at 37° C., the cells were harvested and assayed for clonogenic survival. […] All clonogenic survival results are expressed relative to the untreated controls.
Cultures were irradiated in a 137Cs Gammacell-40 (Atomic Energy of Canada Ltd.) at a dose rate of 0.84 Gy/min. Ligand-treated cells were irradiated two hours after starting the exposure to the ligand. In all cases, the clonogenic survival was delayed until one hour after completion of irradiation.
(§3) Hoechst 33258, Hoechst 33342 or para dimethylamino Hoechst was added to the media of monolayers of V79 cells, to the indicated final concentrations. […] All cultures were held for a further one hour prior to plating for clonogenic survival.
Mono layer cultures of V79 cells were exposed to various concentrations of the three radioprotectors, as described in (a) above. After two hours, the cells were chilled and kept cold during the isolation of nuclei, using 0.08% w.v Triton X-100. After counting an aliquot of the nuclear suspension, the ligands were extracted and quantitated by spectrophotometry and the nuclear content calculated. The survival results shown in the lower part of FIG. 1 were replotted using the nuclear uptake data and the results are shown in FIG. 2.
The first three columns show survival fraction relative to that for untreated control cells. Each row represents a separate experiment and the figures are the means of duplicates. The figures in square brackets is the mean of a number of the results of a number of experiments done over the relevant period. The protection factor is the ratio of survival fractions for irradiated cells, with and without protector.
A number of bibenzimidazoles represented by formula (I) have been synthesised and assayed for radioprotective activity in cell culture. Assays were conducted using V79 fibroblasts and involved exposure of the cells to a single radiation dose (12Gy) and comparison of the clonogenic survival with and without the inclusion of the protector in the cell culture medium. The ratio of the survival fractions (with protector/without), designated the protection ratio (PR12Gy), provides a measure of the extent of radioprotection. The experimental protocol adopted was as in Example 12.

The subject of data set [3] is V79 cells. Put plainly: Cytotoxicity, clonogenic survival of V79 cells without irradiation. Here is the method: as §1, §2, §3
The next data set has as its system HT29. Put plainly: Radioprotection DMF in HT29 cells (Table 1). It counts as cell-based. The note with it: HT29, 8.7 μM.
Data set [4] deals with mouse brain endothelial cells. The data set can be described thus: Protection of mouse brain endothelial cells. It counts as in vivo. Particulars: 80 mg/kg i.v. 10 minutes prior to radiation, within 24 hours, FIG. 6. The procedure: Irradiation of rodent brain results in the loss of a subset of brain endothelial cells within 24 hours after irradiation.
Endothelial cell numbers were scored as described by Lyubimova et al. Each point represents the mean for 3-4 mice; 3 sections were scored for each animal, a total of 30 fields were scored for each section, and the figure indicates the average number of cells per field. The error bars indicate standard errors.

The next data set deals with CHO. Put plainly: Radioprotection DMF in CHO cells (Table 1, existing radioprotector). It counts as cell-based. Particulars: 4 mM.

Molecules are shown by their SMILES. Values joined by “and” are separate entries in the source; they are usually repeats but may differ in a detail not shown here. Equal entries are not always repeated.

With `Cc1cc(N(C)C)ccc1-c1nc2cc(-c3nc4cc(N5CCN(C)CC5)ccc4[nH]3)ccc2[nH]1` [Compound 5, ortho methyl para dimethylamino Hoechst], the DMF in data set [1] amounted to 1.66. The “DMF, maximum breathing rate” value in the data set with mouse lung stood at 1.4. In addition, in the data set with pig skin (40 Gy, 5000 μg/g), the “Fields showing moist desquamation (10 weeks post-Irr.) #” value is given as 4/8 and the “Fields showing moist desquamation (10 weeks post-Irr.) %” value came to 50%. For the same compound, in the data set on pig skin (44 Gy, 5000 μg/g), the “Fields showing moist desquamation (10 weeks post-Irr.) #” value is 4/8 and the “Fields showing moist desquamation (10 weeks post-Irr.) %” value amounted to 50%. Further, in the data set with V79 cells [2] (20 μM), the “Protector plus irradiation (12 Gy), survival fraction relative to untreated control cells” value is 0.15 and 0.145 and 0.12; the “Protection Factor” value is 4.4 and 4.0 and 4.3. Further, the DMF in the data set on V79 cells [2] (V79, 30 μM) came to 2.1. In addition, in the data set with V79 cells [2] (V79, 12Gy 137Cs-γ, 30 μM), the “Protection ratio 12Gy, Exp 5” value worked out at 17.4 and the “Protection ratio 12Gy, Exp 10” value is 18.7. For the same compound, the “Protector only (no irradiation), survival fraction relative to untreated control cells” value with V79 cells [3] (20 μM) was 0.71 and 0.63 and 0.88.
Take `CCOc1ccc(-c2nc3ccc(-c4nc5ccc(N6CCN(C)CC6)cc5[nH]4)cc3[nH]2)cc1` [Hoechst 33342, 4-ethoxy-1-{5′[5′″-(4′″-methylpiperazin-1′″-yl)benzimidazol-2″-yl]benzimidazol-2′-yl}benzene, reference compound]: the DMF with HT29 is 1.5. Moreover, in the data set on pig skin (36 Gy, 5000 μg/g), the “Fields showing moist desquamation (10 weeks post-Irr.) #” value was 3/7 and the “Fields showing moist desquamation (10 weeks post-Irr.) %” value is 43%. Moreover, in the data set with pig skin (40 Gy, 500 μg/g), the “Fields showing moist desquamation (10 weeks post-Irr.) #” value was 4/6 and the “Fields showing moist desquamation (10 weeks post-Irr.) %” value amounted to 83%. Moreover, in the data set with V79 cells [2] (21 μM), the “Protector plus irradiation (12 Gy), survival fraction relative to untreated control cells” value is 0.05 and 0.06 and 0.051; the “Protection Factor” value is 2.3 and 2.7. For the same compound, in the data set on V79 cells [2] (V79, 21 μM), the DMF is 1.3. In the data set on V79 cells [2] (V79, 12Gy 137Cs-γ, 20 μM), the “Protection ratio 12Gy, Exp 1” value is 7.2; the “Protection ratio 12Gy, Exp 4” value was 11.8; the “Protection ratio 12Gy, Exp 9” value is 7.1. The “loss of endothelial cells of mouse brain after irradiation” value in data set [4] was “protected”. In the data set with V79 cells [3] (21 μM), the “Protector only (no irradiation), survival fraction relative to untreated control cells” value is 0.80 and 0.87 and 0.76. Besides, the “concentration above which the protector becomes cytotoxic” value in the data set on V79 cells [3] (V79 cells, no irradiation, clonogenic survival, FIG. 1) fell in the range of 20 to 30 µM.
In turn, `NCCCNCCS` [WR1065] came in with a DMF with CHO of 1.9.
